Assays:
Type in all cases: cell-based, Plasmodium falciparum
[1] = system: P. falciparum W2; assay: Malaria SYBR Green Fluorescence Assay, W2 strain; details: for W2: SYBR Green Assay
[2] = system: P. falciparum C235; assay: Malaria SYBR Green Fluorescence Assay, C235 strain; details: for C235: SYBR Green Assay
[3] = system: P. falciparum D6; assay: Malaria SYBR Green Fluorescence Assay, D6 strain; details: for D6: SYBR Green Assay

Compound	W2 [1]	D6 [3]	W2 (SYBR Green Assay IC50) [1]	also measured
COc1cccc(-c2nc(NCc3cccnc3)nc(C(Cl)(Cl)Cl)n2)c1 [Cmpd 155]	145 ng/mL	318 ng/mL		C235 [2]: 614 ng/mL
CN(Cc1ccccc1c2cccnc2)c3nc(nc(n3)C(Cl)(Cl)Cl)c4ccc(cc4)C(Cl)(Cl)Cl [Compound 653]	272.1 ng/mL			
COc1ccccc1Cc1nc(NCC(C)(C)N)nc(C(Cl)(Cl)Cl)n1 [Cmpd 292]	34 ng/mL	77 ng/mL		C235 [2]: 103 ng/mL
COC1═C(OC)C═C(C═C1)C1═NC(NC2CCN(CC(C)C)CC2)═NC(═N1)C(Cl)(Cl)Cl [Compound 702]	179 ng/mL	435 ng/mL		C235 [2]: 480 ng/mL
CCN1CCCC(C1)NC1═NC(NC2═CC═C(OC(F)(F)F)C═C2)═NC(═N1)C(Cl)(Cl)Cl [Compound 655]	11 ng/mL	19 ng/mL		C235 [2]: 28 ng/mL
CCN1CCCC(Nc2nc(-c3cc(OC)cc(OC)c3)nc(C(Cl)(Cl)Cl)n2)C1 (centres unmarked) [Cmpd 528]			0.023 µg/mL	C235 (SYBR Green Assay IC50) [2]: 0.033 µg/mL; D6 (SYBR Green Assay IC50) [3]: 0.035 µg/mL
CCN(CC)CCCC(C)Nc1nc(Nc2ccc(Cl)c(Cl)c2)nc(n1)C(Cl)(Cl)Cl [Compound 646]			0.7354 µg/mL	D6 (SYBR Green Assay IC50) [3]: 0.6727 µg/mL
CC(C)N1CCC(CNc2nc(-c3cc(Cl)cc(Cl)c3)nc(C(Cl)(Cl)Cl)n2)CC1 [Cmpd 495]			0.01 µg/mL	C235 (SYBR Green Assay IC50) [2]: 0.013 µg/mL; D6 (SYBR Green Assay IC50) [3]: 0.036 µg/mL
COc1ccc(-c2nc(NCC(C)(C)N)nc(C(Cl)(Cl)Cl)n2)cc1OC [Cmpd 396]			0.049 µg/mL	C235 (SYBR Green Assay IC50) [2]: 0.117 µg/mL; D6 (SYBR Green Assay IC50) [3]: 0.086 µg/mL
O=[N+]([O-])c1ccccc1-c1nc(N2CCCN(CCO)CC2)nc(C(Cl)(Cl)Cl)n1 [Cmpd 552]			0.07605 µg/mL	C235 (SYBR Green Assay IC50) [2]: 0.1756 µg/mL; D6 (SYBR Green Assay IC50) [3]: 0.1704 µg/mL
CCN1CCC(CNc2nc(-c3ccc(C)cc3)nc(C(Cl)(Cl)Cl)n2)CC1 [Cmpd 265]	714 ng/mL	803 ng/mL		C235 [2]: 672 ng/mL
ClC(Cl)(Cl)c1ccc(C(Cl)(Cl)Cl)cc1.FC(F)(F)c1cccc(-c2nc(NCCCN3CCCC3)nc(C(Cl)(Cl)Cl)n2)c1 [Cmpd 602]			0.853 µg/mL	
CN(C)C1CCC(Nc2nc(-c3ccc(C(Cl)(Cl)Cl)cc3)nc(C(Cl)(Cl)Cl)n2)CC1 (centres unmarked) [Cmpd 597]			0.882 µg/mL	
COc1cccc(Cc2nc(N3CCCN(C)CC3)nc(C(Cl)(Cl)Cl)n2)c1 [Cmpd 269]	286 ng/mL	835 ng/mL		C235 [2]: 627 ng/mL
CCN1CCC(CNc2nc(-c3ccccc3)nc(C(Cl)(Cl)Cl)n2)CC1 [Cmpd 410]			0.035 µg/mL	C235 (SYBR Green Assay IC50) [2]: 0.113 µg/mL; D6 (SYBR Green Assay IC50) [3]: 0.103 µg/mL
NC1CCN(CC1)C1═NC(═NC(═N1)C1═CC2═C(C═CC═C2)C═C1)C(Cl)(Cl)Cl [Compound 628]			0.017 µg/mL	C235 (SYBR Green Assay IC50) [2]: 0.02 µg/mL; D6 (SYBR Green Assay IC50) [3]: 0.042 µg/mL
COc1ccccc1Nc1nc(NCCC2CCCN2C)nc(C(Cl)(Cl)Cl)n1 (centres unmarked) [Cmpd 63]	794 ng/mL	603 ng/mL		C235 [2]: 540 ng/mL
CC(C)(C)c1ccc(-c2nc(N3CCC(N)CC3)nc(C(Cl)(Cl)Cl)n2)cc1 [Compound 624, CC(C)(C)C1═CC═C(C═C1)C1═NC(═NC(═N1)C(Cl)(Cl)Cl)N1CCC(N)CC1]			0.043 µg/mL	C235 (SYBR Green Assay IC50) [2]: 0.062 µg/mL; D6 (SYBR Green Assay IC50) [3]: 0.091 µg/mL
CS(=O)(=O)c1ccc(-c2nc(N3CCC(N)CC3)nc(C(Cl)(Cl)Cl)n2)cc1 [Compound 627, CS(═O)(═O)C1═CC═C(C═C1)C1═NC(═NC(═N1)C(Cl)(Cl)Cl)N1CCC(N)CC1]			0.025 µg/mL	C235 (SYBR Green Assay IC50) [2]: 0.048 µg/mL; D6 (SYBR Green Assay IC50) [3]: 0.085 µg/mL

Compound	W2 [1]	D6 [3]	W2 (SYBR Green Assay IC50) [1]	also measured
CS(═O)(═O)c1ccc(cc1)c2nc(nc(n2)C(Cl)(Cl)Cl)N3CCC(CC3)C(═O)N [Compound 690]	670 ng/mL			
Cc1ccc(-c2nc(N3CCN(CCO)CC3)nc(C(Cl)(Cl)Cl)n2)cc1 [Cmpd 416]			0.381 µg/mL	
COc1ncccc1Nc1nc(NCCC2CCCN2C)nc(C(Cl)(Cl)Cl)n1 (centres unmarked) [Cmpd 346]	52 ng/mL	62 ng/mL		C235 [2]: 116 ng/mL
CN1CCCC1CCNc1nc(-c2ccc(S(C)(=O)=O)cc2)nc(C(Cl)(Cl)Cl)n1 (centres unmarked) [Cmpd 75]		635 ng/mL		
COc1ccc(-c2nc(NCc3cccnc3)nc(C(Cl)(Cl)Cl)n2)cc1 [Cmpd 156]	560 ng/mL			
Cc1ccc(-c2ccccc2-c2nc(N3CCCNCC3)nc(C(Cl)(Cl)Cl)n2)cc1 [Cmpd 263]	960 ng/mL			C235 [2]: 763 ng/mL
CSc1ccc(-c2nc(NCCc3cnccn3)nc(C(Cl)(Cl)Cl)n2)cc1 [Cmpd 543]			0.669 µg/mL	
Clc1ccc(-c2nc(NCCc3cnccn3)nc(C(Cl)(Cl)Cl)n2)cc1Cl [Cmpd 470]			0.07 µg/mL	C235 (SYBR Green Assay IC50) [2]: 0.258 µg/mL
COc1ncccc1Nc1nc(-c2ccc(S(C)(=O)=O)cc2)nc(C(Cl)(Cl)Cl)n1 [Compound 651, COc1ncccc1Nc2nc(nc(n2)C(Cl)(Cl)Cl)c3ccc(cc3)S(═O)(═O)C]			0.577 µg/mL	D6 (SYBR Green Assay IC50) [3]: 0.76 µg/mL
COc1ccc(-c2nc(NC3CCN(C)CC3)nc(C(Cl)(Cl)Cl)n2)cc1 [Cmpd 275]	618 ng/mL			C235 [2]: 699 ng/mL
COc1ccccc1-c1nc(NCc2cccnc2)nc(C(Cl)(Cl)Cl)n1 [Cmpd 154]	477 ng/mL			
CC(C)(C)c1ccc(cc1)c2nc(nc(n2)C(Cl)(Cl)Cl)N3CCCN(CCO)CC3 [Compound 738]	60.48 ng/mL			C235 [2]: 239.9 ng/mL
Cc1ccc(-c2nc(NCc3ccncc3)nc(C(Cl)(Cl)Cl)n2)cc1 [Cmpd 134]	453 ng/mL	521 ng/mL		
COc1ccccc1Cc1nc(N2CCCN(C)CC2)nc(C(Cl)(Cl)Cl)n1 [Cmpd 289]	311 ng/mL	810 ng/mL		
ClC(Cl)(Cl)c1nc(NCc2ccccn2)nc(-c2ccc(-c3ccccc3)cc2)n1 [Cmpd 250]	721 ng/mL			C235 [2]: 858 ng/mL
CC(C)(C)OC(=O)N1CC2CC1CN2c1nc(-c2ccc(Cl)c(Cl)c2)nc(C(Cl)(Cl)Cl)n1 (centres unmarked) [Compound 705, CC(C)(C)OC(═O)N1CC2CC1CN2c3nc(nc(n3)C(Cl)(Cl)Cl)c4ccc(Cl)c(Cl)c4]	851.8 ng/mL			
Cc1ccc(-c2nc(N3CC4CC3CN4C(=O)OC(C)(C)C)nc(C(Cl)(Cl)Cl)n2)cc1 (centres unmarked) [Compound 711, Cc1ccc(cc1)c2nc(nc(n2)C(Cl)(Cl)Cl)N3CC4CC3CN4C(═O)OC(C)(C)C]		812 ng/mL		
COc1cccc(Cc2nc(NCCN3CCCC3)nc(C(Cl)(Cl)Cl)n2)c1 [Cmpd 82]	805 ng/mL			
CN(CCc1ccccn1)c2nc(nc(n2)C(Cl)(Cl)Cl)c3ccc(cc3)C(C)(C)C [Compound 736]	445.4 ng/mL			

Compound	W2 [1]	D6 [3]	W2 (SYBR Green Assay IC50) [1]	also measured
Clc1cc(Cl)cc(-c2nc(NCCc3cnccn3)nc(C(Cl)(Cl)Cl)n2)c1 [Cmpd 471]			0.174 µg/mL	
NC1(CNc2nc(-c3ccc(C(Cl)(Cl)Cl)cc3)nc(C(Cl)(Cl)Cl)n2)CC1 [Compound 679, NC1(CNC2═NC(═NC(═N2)C2═CC═C(C═C2)C(Cl)(Cl)Cl)C(Cl)(Cl)Cl)CC1]	201 ng/mL	606 ng/mL		
CCN1CCC(CNc2nc(Nc3cccnc3OC)nc(C(Cl)(Cl)Cl)n2)CC1 [Cmpd 352]			0.6372 µg/mL	D6 (SYBR Green Assay IC50) [3]: 0.7908 µg/mL
ClC(Cl)(Cl)c1nc(NCc2cccnc2)nc(-c2ccc(-c3ccccc3)cc2)n1 [Cmpd 249]	545 ng/mL			C235 [2]: 755 ng/mL
CN1CCCC1CCNc1nc(-c2ccc(-c3ccccc3)cc2)nc(C(Cl)(Cl)Cl)n1 (centres unmarked) [Cmpd 201]	845 ng/mL			
CC(C)(C)c1ccc(-c2nc(N3CCOCC3)nc(C(Cl)(Cl)Cl)n2)cc1 [Compound 734, CC(C)(C)c1ccc(cc1)c2nc(nc(n2)C(Cl)(Cl)C1)N3CCOCC3]	834 ng/mL			
CC(C)(C)c1ccc(-c2nc(NCc3ccccn3)nc(C(Cl)(Cl)Cl)n2)cc1 [Cmpd 170]	313 ng/mL			
COc1ccccc1-c1nc(NCCc2cccnc2)nc(C(Cl)(Cl)Cl)n1 [Cmpd 182]	256 ng/mL	659 ng/mL		
COc1ccc(-c2nc(NCCc3cnccn3)nc(C(Cl)(Cl)Cl)n2)c2ccccc12 [Cmpd 546]			0.361 µg/mL	C235 (SYBR Green Assay IC50) [2]: 0.701 µg/mL
COc1ccc(-c2nc(N3CCCN(C)CC3)nc(C(Cl)(Cl)Cl)n2)cc1OC [Cmpd 398]			0.638 µg/mL	
COc1ccccc1-c1nc(NCc2ccncc2)nc(C(Cl)(Cl)Cl)n1 [Cmpd 135]	461 ng/mL	765 ng/mL		
OCCN1CCCN(c2nc(-c3ccc(N4CCCC4)cc3)nc(C(Cl)(Cl)Cl)n2)CC1 [Cmpd 465]			0.222 µg/mL	C235 (SYBR Green Assay IC50) [2]: 0.498 µg/mL
COc1ccc(-c2nc(NC3CCN(C)CC3)nc(C(Cl)(Cl)Cl)n2)cc1OC [Cmpd 399]			0.705 µg/mL	
NC1(CNc2nc(-c3cccc(C(F)(F)F)c3)nc(C(Cl)(Cl)Cl)n2)CCCCC1 [Compound 663, NC1(CNC2═NC(═NC(═N2)C2═CC(═CC═C2)C(F)(F)F)C(Cl)(Cl)Cl)CCCCC1]	583 ng/mL	729 ng/mL		
NC1(CNc2nc(-c3ccccc3)nc(C(Cl)(Cl)Cl)n2)CC1 [Compound 677, NC1(CNC2═NC(═NC(═N2)C2═CC═CC═C2)C(Cl)(Cl)Cl)CC1]	527 ng/mL			C235 [2]: 910 ng/mL
CS(=O)(=O)c1ccc(-c2nc(NCCc3ccccn3)nc(C(Cl)(Cl)Cl)n2)cc1 [Cmpd 180]	478 ng/mL	819 ng/mL		
CS(=O)(=O)c1ccc(-c2nc(NCc3ccncc3)nc(C(Cl)(Cl)Cl)n2)cc1 [Compound 650, CS(═O)(═O)c1ccc(cc1)c2nc(NCc3ccncc3)nc(n2)C(Cl)(Cl)Cl]			0.803 µg/mL	
CN1CCCC1CCNc1nc(-c2ccc(N3CCCC3)cc2)nc(C(Cl)(Cl)Cl)n1 (centres unmarked) [Cmpd 370]				D6 (SYBR Green Assay IC50) [3]: 0.846 µg/mL
